According to patent US4228150A, “Method of inhibiting dextransucrase and oral compositions for use therein” (Iowa State University Research Foundation, Inc., priority 1979, dated 1980):

System: dextransucrase
Experiment: Inhibition of dextransucrase synthesis of dextran from 14C-sucrose (radioactive polysaccharide on paper, slope versus control)
Type: biochemical, bacteria
Conditions: compared to 6,1',6'-trifluorosucrose
Method: Dextransucrase was obtained from the culture supernatant of bacteria. Various amounts (6 to 30 mg/ml) of the fluorosucrose mixture prepared as in Example I were added to the enzyme (3 units/ml)* and allowed to incubate 10 minutes. At the end of this time, the enzyme was assayed by adding 1/2 volume of 0.3 M ^14 C-(U)-sucrose to the fluorosucrose-enzyme solution; equal aliquots were withdrawn with time and spotted onto 1.5×1.5 cm squares of Whatman 3 MM paper, which were immediately dropped into 20 ml anhydrous methanol. Three 200 ml volumes of methanol were added in 15 min. intervals. The papers were then removed, dried, and the radioactivity determined in a liquid scintillation spectrometer. The amount of radioactivity (polysaccharide formed) was plotted against the reaction time with sucrose (time of aliquot removed). The slopes of the resulting lines were determined and the percent inhibition calculated from the ratio of the slopes of the inhibited reactions to the slope of a control in which no inhibitor was added.
*Units are in terms of International Enzyme Units, that is, the amount of enzyme that will incorporate one micromole of monomer into polysaccharide per minute under conditions of optimum temperature and pH.

SMILES: O[C@@H]1[C@@H](O)[C@@H](O[C@]2(CCl)O[C@H](CCl)[C@@H](O)[C@@H]2O)O[C@H](CCl)[C@H]1O [6,1',6'-trichlorosucrose]
- effectiveness as an inhibitor for dextran: relatively ineffective
